Test results from patent US10357036B2, “Compounds for controlling arthropods” (priority 2015, dated 2019).

What was measured:
[1] = tested on: Musca domestica; assay: Musca domestica test; type: in vivo; settings: 100 ppm; adult houseflies; after 2 days
Procedure: (§1) • Solvent: dimethyl sulfoxide
To produce a suitable active ingredient formulation, 10 mg of active ingredient are mixed with 0.5 ml of dimethyl sulfoxide, and the concentrate is diluted with water to the desired concentration.
Vessels containing a sponge treated with sugar solution and the active ingredient formulation of the desired concentration are populated with 10 adult houseflies (Musca domestica).

[2] = tested on: Ctenocephalides felis; assay: Ctenocephalides felis oral test; type: in vivo; settings: 100 ppm in citrated cattle blood; after 2 days
Procedure: • Solvent: Dimethyl Sulfoxide
To produce a suitable active ingredient formulation, 10 mg of active ingredient are mixed with 0.5 ml of dimethyl sulfoxide. Dilution with citrated cattle blood gives the desired concentration.
About 20 unfed adult cat fleas (Ctenocephalides fells) are placed into a chamber which is closed at the top and bottom with gauze. A metal cylinder whose bottom end is closed with parafilm is placed onto the chamber. The cylinder contains the blood/active ingredient formulation, which can be imbibed by the fleas through the parafilm membrane.

[3] = tested on: Boophilus microplus; assay: Boophilus microplus injection test; type: in vivo; settings: 20 μg/animal; assessed after 7 days
Procedure: as §1
1 μl of the active ingredient solution is injected into the abdomen of 5 engorged adult female cattle ticks (Boophilus microplus). The animals are transferred into dishes and kept in a climate-controlled room.

[4] = tested on: Spodoptera frugiperda; assay: Spodoptera frugiperda spray test; type: in vivo; settings: after 7 days
[5] = tested on: Phaedon cochleariae; assay: Phaedon cochleariae spray test; settings: 100 g/ha; after 7 days
[6] = tested on: Tetranychus urticae; assay: Tetranychus urticae spray test, OP-resistant (bean leaf discs); type: in vivo; settings: 100 g/ha; after 6 days
Procedure: After 6 days, the efficacy in % is determined.

[7] = tested on: Rhipicephalus sanguineus; assay: Rhipicephalus sanguineus in vitro contact test with adult brown dog ticks; type: in vivo; settings: application rate 5 μg/cm^2 (=500 g/ha); after 48 h; dead or moribund ticks
Procedure: For the coating of the test tubes, 9 mg of active ingredient are first dissolved in 1 ml of acetone p.a. and then diluted to the desired concentration with acetone p.a. 250 μl of the solution are distributed homogeneously on the inner walls and the base of a 25 ml glass tube by turning and rocking on an orbital shaker (rocking rotation at 30 rpm for 2 h). With 900 ppm of active ingredient solution and internal surface area 44.7 cm^2, given homogeneous distribution, an area-based dose of 5 μg/cm^2 is achieved.
After the solvent has evaporated off, the tubes are populated with 5-10 adult dog ticks (Rhipicephalus sanguineus), sealed with a perforated plastic lid and incubated in a horizontal position in the dark at room temperature and ambient humidity. After 48 h, efficacy is determined. To this end, the ticks are knocked to the base of the tube and incubated on a hotplate at 45-50° C. for not more than 5 min. Ticks which remain motionless on the base or move in such an uncoordinated manner that they are unable to deliberately avoid the heat by climbing upwards are considered to be dead or moribund.
An efficacy of 100% means that all the ticks were dead or moribund. 0% efficacy means that none of the ticks were harmed.

Row | SMILES | efficacy (rate of extermination) [1] [%] | efficacy (rate of extermination) [2] [%] | efficacy (laying of fertile eggs) [3] [%] | efficacy ([4]; 100 g/ha) [%] | efficacy [5] [%] | efficacy [6] [%] | efficacy [7] [%] | efficacy ([4]; 20 g/ha) [%]
1 | CCC(=O)NCc1cc(-c2cnn(-c3c(Cl)cc(C(F)(C(F)(F)F)C(F)(F)F)cc3OC(F)(F)F)c2)cnc1Cl [Ia-133] | 100 | 100 | 100 | 100 | 100 |  |  | 
2 | CCCCC(=O)NCc1cc(-c2cnn(-c3c(Cl)cc(C(F)(C(F)(F)F)C(F)(F)F)cc3C(F)F)c2)ccc1F [Ia-59] | 100 | 100 | 100 | 100 | 100 | 100 |  | 
3 | N#Cc1cc(C(F)(C(F)(F)F)C(F)(F)F)cc(Cl)c1-n1cc(-c2cccc(CNC(=O)C3CC3)c2)cn1 [Ia-98] | 90 | 100 | 100 |  | 100 | 90 |  | 
4 | CC(C)CC(=O)NCc1cc(-c2cnn(-c3c(Cl)cc(C(F)(C(F)(F)F)C(F)(F)F)cc3C(F)F)c2)ccc1F [Ia-61] | 80 | 100 | 100 | 100 |  | 70 |  | 
5 | CC(=O)N(C)Cc1cc(-c2cnn(-c3c(Cl)cc(C(F)(C(F)(F)F)C(F)(F)F)cc3Cl)c2)ccc1C(F)(F)F [Ia-77] |  | 100 | 100 | 100 | 100 |  |  | 
6 | O=C(NCc1cccc(-c2cnn(-c3c(Cl)cc(C(F)(C(F)(F)F)C(F)(F)F)cc3Cl)c2)c1)C1CC1 [Ia-41] | 100 | 100 | 100 |  | 100 |  |  | 
7 | CCC(=O)NCc1cccc(-c2cnn(-c3c(Cl)cc(C(F)(C(F)(F)F)C(F)(F)F)cc3C(F)(F)F)c2)c1F [Ia-150] | 100 | 100 | 100 | 100 | 100 | 90 |  | 
8 | CN(Cc1cc(-c2cnn(-c3c(Cl)cc(C(F)(C(F)(F)F)C(F)(F)F)cc3Cl)c2)ccc1Cl)S(C)(=O)=O [Ic-04] | 100 | 100 |  | 100 | 100 | 100 |  | 
9 | O=C(NCc1cc(-c2cnn(-c3c(Cl)cc(C(F)(C(F)(F)F)C(F)(F)F)cc3Cl)c2)cnc1Cl)C1CC1 [Ia-18] | 100 | 100 | 100 | 100 | 100 |  |  | 
10 | CCC(=O)NC1CCc2ccc(-c3cnn(-c4c(Cl)cc(C(F)(C(F)(F)F)C(F)(F)F)cc4C(F)(F)F)c3)cc21 (centres unmarked) [I-Tc-02] |  | 100 | 100 | 100 |  |  | 80 | 
11 | CC(=O)NCc1cc(-c2cnn(-c3c(Cl)cc(C(F)(C(F)(F)F)C(F)(F)F)cc3Cl)c2)ccc1C(F)(F)F [Ia-74] | 100 | 100 | 100 | 100 | 100 | 100 |  | 
12 | CC(=O)NCc1cccc(-c2cnn(-c3c(Cl)cc(C(F)(C(F)(F)F)C(F)(F)F)cc3C(F)F)c2)c1 [Ia-02] | 100 | 100 | 100 | 100 | 100 | 100 |  | 
13 | CC(=O)NCc1cccc(-c2cnn(-c3c(Cl)cc(C(F)(C(F)(F)F)C(F)(F)F)cc3C(F)F)c2)c1F [Ia-144] | 100 | 100 | 100 | 100 | 100 | 90 |  | 
14 | CSc1cc(C(F)(C(F)(F)F)C(F)(F)F)cc(Cl)c1-n1cc(-c2ccc(F)c(CNC(=O)C3CC3)c2)cn1 [Ia-12] | 100 | 100 | 100 | 83 | 100 | 100 |  | 
15 | CC(=O)NCc1cc(-c2cnn(-c3c(Cl)cc(S(=O)(=O)C(F)(F)F)cc3Cl)c2)ccc1Cl [Ia-88] |  | 100 | 100 | 83 | 100 | 100 |  | 
16 | CCC(=O)NCc1c(F)ccc(-c2cnn(-c3c(Cl)cc(C(F)(C(F)(F)F)C(F)(F)F)cc3Cl)c2)c1F [Ia-148] | 100 | 100 | 100 | 100 | 100 |  |  | 
17 | CCC(=O)NCc1cc(-c2cnn(-c3c(Cl)cc(C4(C(F)(F)F)CC4)cc3Cl)c2)ccc1Cl [Ia-128] | 100 | 100 |  | 100 | 100 |  |  | 
18 | CC(=O)N(C)Cc1cc(-c2cnn(-c3c(Cl)cc(C(F)(C(F)(F)F)C(F)(F)F)cc3OC(F)(F)F)c2)ccc1Cl [Ia-85] |  |  |  | 100 | 100 | 100 |  | 
19 | CC(=O)NCc1cccc(-c2cnn(-c3c(Cl)cc(C(F)(C(F)(F)F)C(F)(F)F)cc3C(F)(F)F)c2)c1F [Ia-151] | 100 | 100 | 100 | 100 | 100 |  |  | 
20 | CCC(=O)NCc1cc(-c2cnn(-c3c(Cl)cc(C(F)(C(F)(F)F)C(F)(F)F)cc3Cl)c2)c(F)cc1Cl [Ia-111] |  |  |  | 100 | 100 | 100 |  | 
21 | CCC(=O)N(C)Cc1cc(-c2cnn(-c3c(Cl)cc(C(F)(C(F)(F)F)C(F)(F)F)cc3OC(F)(F)F)c2)ccc1F [Ia-27] |  |  |  | 100 | 100 | 100 |  | 
22 | CCC(=O)NCc1cc(-c2cnn(-c3c(Cl)cc(C(F)(C(F)(F)F)C(F)(F)F)cc3Cl)c2)cnc1Cl [Ia-132] | 100 | 100 | 100 | 100 | 100 |  |  | 
23 | C[S+]([O-])c1cc(C(F)(C(F)(F)F)C(F)(F)F)cc(Cl)c1-n1cc(-c2ccc(F)c(CNC(=O)C3CC3)c2)cn1 (centres unmarked) [Ia-43] |  |  |  |  | 100 | 90 |  | 83
24 | CS(=O)(=O)NCc1cc(-c2cnn(-c3c(Cl)cc(C(F)(C(F)(F)F)C(F)(F)F)cc3Cl)c2)ccc1Cl [Ic-01] | 90 | 100 | 100 | 100 | 100 | 100 |  | 
25 | CC(=S)N(C)Cc1cc(-c2cnn(-c3c(Cl)cc(C(F)(C(F)(F)F)C(F)(F)F)cc3Cl)c2)ccc1Cl [Ia-163] |  |  |  | 83 | 100 | 100 |  | 
26 | CCC(=O)NCc1cc(-c2cnn(-c3c(Cl)cc(C(F)(C(F)(F)F)C(F)(F)F)cc3Cl)c2)ccc1C(F)(F)F [Ia-72] | 100 | 100 | 100 | 100 | 100 | 100 |  | 
27 | O=C(NCc1cc(-c2cnn(-c3c(Cl)cc(C(F)(C(F)(F)F)C(F)(F)F)cc3Cl)c2)ccc1Cl)C(F)F [Ia-119] |  |  |  | 100 | 100 | 100 |  | 
28 | CC(=O)N(C)Cc1cc(-c2cnn(-c3c(F)cc(C(F)(C(F)(F)F)C(F)(F)F)cc3Br)c2)ccc1Cl [Ia-100] |  |  |  | 100 | 100 | 100 |  | 
29 | CCC(=O)N(C)Cc1cc(-c2cnn(-c3c(Cl)cc(C(F)(C(F)(F)F)C(F)(F)F)cc3Cl)c2)ccc1Br [Ia-167] |  |  |  | 100 | 100 | 100 |  | 
30 | O=C(CC(F)(F)F)NCc1cc(-c2cnn(-c3c(Cl)cc(C(F)(C(F)(F)F)C(F)(F)F)cc3Cl)c2)ccc1Cl [Ia-35] | 100 | 100 | 100 | 100 |  |  |  | 
